Results as given in US20220031901A1, “FRAGRANCE COMPOSITION” (Takasago International Corporation, priority 2020, published 2022).
Blank lines part the entries; values can stand above or below the compound they belong to.

Assays:
olfactory receptor OR2L3 [1] = biological target: T1, olfactory receptor OR2L3 (Homo sapiens, UniProt Q8NG85); assay: Effect of suppressing the response of OR2L3 to unpleasant odor (luciferase reporter gene assay); type: cell-based; conditions: for Effect of suppressing the response of OR2L3 to indole: test substance mixed with indole, FIGS. 9 to 11; for Effect of suppressing the response of OR2L3 to skatole: test substance mixed with skatole, ratio of Fold Increase value, FIGS. 6 to 8
T1 construct: N-terminal 20 amino acid residues of bovine rhodopsin (Rho tag); expressed in transfected cells; host or cells: HEK293T
T1 sequence (Q8NG85 1-312): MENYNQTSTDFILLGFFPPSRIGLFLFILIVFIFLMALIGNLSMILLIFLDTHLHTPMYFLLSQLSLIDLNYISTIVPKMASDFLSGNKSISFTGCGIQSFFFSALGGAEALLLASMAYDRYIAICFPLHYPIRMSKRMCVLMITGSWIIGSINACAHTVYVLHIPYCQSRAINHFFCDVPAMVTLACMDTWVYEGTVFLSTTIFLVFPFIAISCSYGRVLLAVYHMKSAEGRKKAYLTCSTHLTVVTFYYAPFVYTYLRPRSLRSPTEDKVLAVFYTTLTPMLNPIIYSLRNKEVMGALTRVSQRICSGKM
Procedure: (§1) A human olfactory receptor gene was obtained by cloning according to the PCR method using Human Genomic DNA: Female (Promega) based on the sequence information registered in GenBank. The N-terminal 20 amino acid residues of bovine rhodopsin were incorporated into a pME18S vector, and the obtained human olfactory receptor gene was further incorporated downstream thereof, thereby obtaining a human olfactory receptor gene expression vector.
(§2) 0.05 μg of the human olfactory receptor gene expression vector, 0.01 μg of an RTP1S vector, 0.01 μg of a firefly luciferase vector pGL4.29 containing a cAMP-responsive sequence promoter (Promega), and 0.005 μg of a Renilla luciferase vector pGL4.74 containing a thymidine kinase promoter (Promega) were dissolved in 10 μL of Opti-MEM I (gibco) to obtain a gene solution (for one well). 100 μL of HEK293T cells were seeded in each well of a 96-well plate (Biocoat manufactured by Corning) so as to reach confluency after 24 hours. According to the directions for use of Lipofectamine 3000, by the lipofection method, the gene solution was added to each well to perform gene transfer to cells, and culturing was performed under 5% carbon dioxide atmosphere at 37° C. for 24 hours.
(§3) After removing the culture medium, 50 μL of CD293 medium (gibco) (20 μM L-glutamine added) including measured concentration of an aroma compound as a sample was added to each well, and stimulation was performed for 3 hours. After that, the luciferase activity was measured according to the directions for use of Dual-Luciferase Reporter Assay System (Promega). The response strength of the olfactory receptor was expressed by the Fold Increase value, which is obtained by dividing the luciferase activity generated by stimulation of the aroma compound by the luciferase activity generated in the test system not including the aroma compound.
With respect to Group A, the effect of suppressing the response of OR2L3 that strongly responded to unpleasant odors was measured by means of luciferase reporter gene assay. In luciferase reporter gene assay, skatole and Guava coeur (registered trademark) were used by being mixed with a sample. The Fold Increase value in the test in which Guava coeur was not mixed was regarded as 1, and the ratio of the Fold Increase value in the test in which Guava coeur was mixed was obtained.
Guava coeur in the evaluation of the effect of suppressing the response of OR2L3 was replaced by Dextramber (registered trademark), and the test was conducted in the same manner. […] Similarly, Guava coeur was replaced by Hindinol (registered trademark) and the test was conducted.
Regarding the unpleasant odor in the evaluation of the effect of suppressing the response of OR2L3, skatole was replaced by indole, and the test was conducted in the same manner.
In the evaluation of the effect of suppressing the response of OR2L3, the test was further conducted using combinations in which Guava coeur was replaced by another material of Group A and the skatole as the unpleasant odor was replaced by α-terpineol, 4-terpineol or p-methylacetophenone.

[2] = Sensory evaluation of unpleasant odor suppression ability of Group A; parameters: species or system human; conditions: for Indole strength / Skatole strength: average of 20 panelists, scale 0 (not smelled) to 10 (very strongly), unpleasant odor alone = 8, 1 hour; for Indole strength: 10 μL indole diluted 100-fold + 1 μL test substance; for Skatole strength: 10 μL skatole diluted 100-fold + 1 μL test substance; for Effect of suppressing the unpleasant odors (skatole, indole): sensory evaluation, result in words
Procedure: The unpleasant odor suppression ability of test substances having activity to inhibit receptor action was confirmed by sensory evaluation. A cotton ball on which 10 μL of skatole or indole diluted 100-fold with triethyl citrate as an unpleasant odor and 1 μL of a test substance were dropped was put into a plastic bottle (OZO-40 manufactured by Takemoto Yohki Co., Ltd.). The bottle was allowed to stand at room temperature for 1 hour to sufficiently volatilize odor molecules therein. The sensory evaluation test was conducted by a panel consisting of 20 persons, who made evaluation as follows: the odor strength in the case where the unpleasant odor was dropped solely was rated as 8, and the unpleasant odor strength in the case where the test substance was mixed was rated as from 0 (the unpleasant odor is not smelled) to 10 (the unpleasant odor is smelled very strongly). The average value was calculated from obtained numerical values.

[3] = Sensory evaluation of ability to suppress model fecal odor by fragrance compositions; parameters: species or system human; conditions: substance blended in the fragrance composition (floral-fruity base); result in words
Procedure: Fragrance compositions of Fragrance 1 to Fragrance 41 were prepared according to the formulations in Tables 2-6 below. DPG in the tables means dipropylene glycol. […] Note that the way of dividing the group and the ratio in the group are optional and not limited by Table 7. The floral-fruity base in Tables 2-6 was prepared according to Table 8.
Regarding these fragrance compositions, the ability to suppress the unpleasant odor was confirmed by means of sensory evaluation. As the unpleasant odor, a model fecal odor containing skatole, indole, butyric acid, p-cresol and dimethyl trisulfide (Lin et al., Environ. Sci. Technol., 2013, 47(14), pp. 7876-7882) was diluted 100-fold, and 10 μL thereof was dropped on a cotton ball, and as a test substance, 1 μL of one of Fragrance 1 to Fragrance 41 was dropped on the cotton ball. Then the cotton ball was put into a plastic bottle (OZO-40 manufactured by Takemoto Yohki Co., Ltd.). The bottle was allowed to stand at room temperature for 1 hour to sufficiently volatilize odor molecules therein. The sensory evaluation test was conducted by a panel consisting of 20 persons, who made evaluation as follows: the unpleasantness in the case where the unpleasant odor was dropped solely was rated as −3, and the unpleasantness in the case where the test substance was mixed was rated as from −4 (extremely unpleasant) to +4 (extremely pleasant). The average value was calculated from obtained numerical values.

olfactory receptor OR2L3 [4] = biological target: T1, olfactory receptor OR2L3; assay: Response of olfactory receptor OR2L3 to unpleasant odor-causing substance (luciferase reporter gene assay); type: cell-based; conditions: various concentrations, stimulation 3 hours, HEK293T cells expressing OR2L3; FIGS. 1 to 5
Procedure: as §1, §2, §3
Responses of the olfactory receptor OR2L3 to skatole, indole, α-terpineol, 4-terpineol or p-methylacetophenone as a typical example of the unpleasant odor-causing substance were measured with various concentrations by means of luciferase reporter gene assay. […] Meanwhile, in the Mock test (using cells in which OR2L3 was not expressed), no response was shown. That is, it was shown that OR2L3 specifically responds to the respective unpleasant odor-causing substances.

Response of the olfactory receptor OR2L3 (Fold Increase value) (olfactory receptor OR2L3 [4]): concentration-dependent responses
Compound: Cc1c[nH]c2ccccc12 [skatole]

Response of the olfactory receptor OR2L3 (Fold Increase value) (olfactory receptor OR2L3 [4]): concentration-dependent responses
Compound: CC1=CCC(C(C)(C)O)CC1 (stereo not drawn) [α-terpineol]

Effect of suppressing the response of OR2L3 to skatole (olfactory receptor OR2L3 [1]): suppresses
Compound: methyl fenchol [Humus Ether]
Suppression of the unpleasantness of the model fecal odor [3]: suppressed the unpleasantness

Effect of suppressing the response of OR2L3 to skatole (olfactory receptor OR2L3 [1]): did not suppress
Compound: CCCCCCOC(=O)c1ccccc1O [Hexyl salicylate, hexyl salicylate, reference compound]
Indole strength [2]: 6.7 | Skatole strength [2]: 6.9

Response of the olfactory receptor OR2L3 (Fold Increase value) (olfactory receptor OR2L3 [4]): concentration-dependent responses
Compound: CC(=O)c1ccc(C)cc1 [p-methylacetophenone]

Response of the olfactory receptor OR2L3 (Fold Increase value) (olfactory receptor OR2L3 [4]): concentration-dependent responses
Compound: CC1=CCC(O)(C(C)C)CC1 (stereo not shown) [Fragrance 4-terpineol, 4-terpineol]

Effect of suppressing the response of OR2L3 to skatole (olfactory receptor OR2L3 [1]): did not suppress
Compound: CC(C)(C)C1CCC(O)CC1 (stereo not shown) [4-t-butylcyclohexanol, reference compound]
Indole strength [2]: 6.0 | Skatole strength [2]: 6.3

More lines, now with the values behind:

Compound: CC(=CCC1CC=C(C)C1(C)C)CO (stereo not shown) [Hindinol, 2-methyl-4-(2,2,3-trimethyl-3-cyclopentenyl)-2-buten-1-ol]
Effect of suppressing the response of OR2L3 to indole (olfactory receptor OR2L3 [1]): concentration-dependently reducing the response | Effect of suppressing the response of OR2L3 to skatole (olfactory receptor OR2L3 [1]): concentration-dependently reducing the response | Indole strength [2]: 4.1 | Skatole strength [2]: 3.6 | Effect of suppressing the unpleasant odors (skatole, indole) [2]: suppress the unpleasant odors | Suppression of the unpleasantness of the model fecal odor [3]: suppress the unpleasantness

Compound: c1ccc2[nH]ccc2c1 [indole]
Response of the olfactory receptor OR2L3 (Fold Increase value) (olfactory receptor OR2L3 [4]): concentration-dependent responses

Compound: CC(c1ccccc1)C1CC1C(C)(C)O (stereo not shown) [Pamplefix, dimethyl-2-(1-phenylethyl)cyclopropylmethanol]
Indole strength [2]: 2.4 | Skatole strength [2]: 2.5 | Effect of suppressing the unpleasant odors (skatole, indole) [2]: suppress the unpleasant odors | Suppression of the unpleasantness of the model fecal odor [3]: suppress the unpleasantness

Compound: CCOC(=O)C(C)C(C)S (stereo not shown) [Guava coeur, ethyl 3-mercapto-2-methylbutyrate]
Effect of suppressing the response of OR2L3 to indole (olfactory receptor OR2L3 [1]): concentration-dependently reducing the response | Effect of suppressing the response of OR2L3 to skatole (olfactory receptor OR2L3 [1]): concentration-dependently reducing the response | Indole strength [2]: 3.3 | Skatole strength [2]: 3.0 | Effect of suppressing the unpleasant odors (skatole, indole) [2]: suppress the unpleasant odors | Suppression of the unpleasantness of the model fecal odor [3]: suppress the unpleasantness

Compound: CC1CCC(C(C)(C)S)C(=O)C1 (stereo not shown) [Ringonol, p-mentha-8-thiol-3-one]
Indole strength [2]: 3.7 | Skatole strength [2]: 3.9 | Effect of suppressing the unpleasant odors (skatole, indole) [2]: suppress the unpleasant odors | Suppression of the unpleasantness of the model fecal odor [3]: suppress the unpleasantness

Compound: O=C1CCCC=CCCCCCCCCCC1 [Ambretone, 5-cyclohexadecenone]
Indole strength [2]: 3.6 | Skatole strength [2]: 4.2 | Effect of suppressing the unpleasant odors (skatole, indole) [2]: suppress the unpleasant odors | Suppression of the unpleasantness of the model fecal odor [3]: suppress the unpleasantness

Compound: CCCC(O)CCC1C(C)CCCC1(C)C (stereo not shown) [Dextramber, 1-(2,2,6-trimethylcyclohexyl)hexan-3-ol]
Effect of suppressing the response of OR2L3 to indole (olfactory receptor OR2L3 [1]): concentration-dependently reducing the response | Effect of suppressing the response of OR2L3 to skatole (olfactory receptor OR2L3 [1]): concentration-dependently reducing the response | Indole strength [2]: 3.9 | Skatole strength [2]: 4.0 | Effect of suppressing the unpleasant odors (skatole, indole) [2]: suppress the unpleasant odors | Suppression of the unpleasantness of the model fecal odor [3]: suppress the unpleasantness
